Experimental data from ChEMBL document CHEMBL4229431, “Discovery of novel selective GPR120 agonists with potent anti-diabetic activity by hybrid design” (Bioorg Med Chem Lett, 2018).
The source made the active and inactive calls. No cut-off for these calls is given here.

Key:
[1] = molecular target: T1, Free fatty acid receptor 4 (Homo sapiens, UniProt Q5NUL3); test: Agonist activity at human GPR120 expressed in CHO cells assessed as increase in intracellular calcium level by Fluo-4-AM dye based assay; type: functional, cell-based
T1 sequence (Q5NUL3 whole entry): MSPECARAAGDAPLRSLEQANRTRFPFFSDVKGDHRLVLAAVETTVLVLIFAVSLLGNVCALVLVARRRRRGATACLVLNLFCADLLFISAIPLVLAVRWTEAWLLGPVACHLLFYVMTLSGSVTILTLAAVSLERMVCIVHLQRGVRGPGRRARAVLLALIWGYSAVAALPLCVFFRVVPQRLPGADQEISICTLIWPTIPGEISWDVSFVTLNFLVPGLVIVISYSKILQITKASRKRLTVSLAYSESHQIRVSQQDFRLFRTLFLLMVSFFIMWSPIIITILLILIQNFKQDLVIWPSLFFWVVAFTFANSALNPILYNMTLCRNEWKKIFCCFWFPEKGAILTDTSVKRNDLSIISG

[2] = molecular target: Free fatty acid receptor 1 (Homo sapiens, UniProt O14842); test: Agonist activity at human GPR40 expressed in CHO cells assessed as increase in intracellular calcium level by Fluo-4-AM dye based assay; type: functional, cell-based
[3] = species: Homo sapiens; test: Selectivity ratio of EC50 for agonist activity at human GPR40 expressed in CHO cells to EC50 for agonist activity at human GPR120 expressed in CHO cells; type: cell-based
[4] = molecular target: T2, Free fatty acid receptor 4 (Homo sapiens) (UniProt Q5NUL3); test: Agonist activity at human GPR120 expressed in CHO cells assessed as increase in intracellular calcium level at 1 uM by Fluo-4-AM dye based assay; type: functional, cell-based
T2 sequence (whole entry): T1 sequence (Q5NUL3 whole entry)

[5] = test system: Mus musculus; test: Hypoglycemic activity in ICR mouse assessed as reduction in blood glucose level at 10 mg/kg, po pretreated for 60 mins followed by glucose challenge measured up to 120 mins by OGTT; type: functional, organism-based
[6] = test system: Mus musculus; test: Hypoglycemic activity in ICR mouse assessed as reduction in blood glucose level pretreated orally for 60 mins followed by glucose challenge measured up to 120 mins by OGTT; type: functional, organism-based
[7] = molecular target: T1, Free fatty acid receptor 4; test: Agonist activity at human GPR120; type: functional

Sequence of Free fatty acid receptor 1 (O14842 whole entry): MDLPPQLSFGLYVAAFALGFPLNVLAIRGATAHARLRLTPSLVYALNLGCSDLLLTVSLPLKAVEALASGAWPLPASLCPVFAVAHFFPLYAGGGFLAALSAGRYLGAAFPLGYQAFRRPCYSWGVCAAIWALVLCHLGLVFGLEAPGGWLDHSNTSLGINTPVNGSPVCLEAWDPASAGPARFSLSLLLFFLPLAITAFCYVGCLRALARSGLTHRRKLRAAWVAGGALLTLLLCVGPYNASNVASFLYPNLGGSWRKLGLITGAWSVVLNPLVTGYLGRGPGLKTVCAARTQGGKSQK

What does the source list for `CO[C@H]1C[C@H](Oc2ccc([N+](=O)[O-])c(-c3cc(F)c(OCCCC(=O)O)c(F)c3)c2)C1`?
EC50 [1]: 1.48 µM; EC50 [2]: 29.4 µM; Ratio EC50 [3]: 20

With `CO[C@H]1C[C@H](Oc2cc(F)c(F)c(-c3cc(F)c(OCCCC(=O)NS(C)(=O)=O)c(F)c3)c2)C1` as the compound, how does the Activity [4] read?
The Activity was “inactive”.

`CO[C@H]1C[C@H](Oc2cc3c(c(-c4cc(F)c(OCCCC(=O)O)c(F)c4)c2)OCO3)C1` was tested. Which EC50 [1] did it give?
Its EC50 is 0.22 µM.

And the EC50 [2]?
The EC50 was > 100 µM.

For `CO[C@H]1C[C@H](Oc2cc(F)c(F)c(-c3cc(F)c(OCCCC(=O)NS(=O)(=O)c4ccccc4)c(F)c3)c2)C1`, which Activity [4] is on record?
Its Activity is “inactive”.

`CO[C@H]1C[C@H](Oc2cc(F)c(F)c(-c3cc(F)c(OCCCCCCCC(=O)O)c(F)c3)c2)C1` was tested. Which EC50 [1] did it give?
The EC50 was 24 µM.

And the EC50 [2]?
Its EC50 is 3.48 µM.

What about the Ratio EC50 [3] of the same compound?
Its Ratio EC50 is < 1.

Which EC50 [1] does the source give for `CO[C@H]1C[C@H](Oc2cc(F)c(F)c(-c3cc(F)c(SCCCC(=O)O)c(F)c3)c2)C1` here?
Its EC50 is 0.347 µM.

What about the EC50 [2] of the same compound?
Its EC50 is > 100 µM.

How did the EC50 [1] turn out when `CO[C@H]1C[C@H](Oc2cc(F)c(F)c(-c3cc(F)c(OCCCCC(=O)O)c(F)c3)c2)C1` was run?
Its EC50 is 0.186 µM.

What about the EC50 [2] of the same compound?
The EC50 was 68.8 µM.

And the Ratio EC50 [3]?
The Ratio EC50 was 370.

`CO[C@H]1C[C@H](Oc2cc(F)c(F)c(-c3cc(F)c(OCCCC(=O)OCCNC(C)=O)c(F)c3)c2)C1` was tested. Which Activity [4] did it give?
Its Activity is “inactive”.

With `CO[C@H]1C[C@H](Oc2cc(F)c(F)c(-c3cc(F)c(S(=O)(=O)CCCC(=O)O)c(F)c3)c2)C1` as the compound, how does the Activity [4] read?
The Activity was “inactive”.

What does the source list for `CO[C@H]1C[C@H](Oc2cc(F)c(F)c(-c3cc(F)c(OCCC(C)(C)C(=O)O)c(F)c3)c2)C1`?
EC50 [1]: 5.04 µM; EC50 [2]: > 100 µM

Which results are given for `O=C(O)CCCOc1c(F)cc(-c2cc(OC3CCOCC3)cc(F)c2F)cc1F`?
EC50 [1]: 2.78 µM; EC50 [2]: > 100 µM

For `COc1cc(F)c(F)c(-c2cc(F)c(OCCCC(=O)O)c(F)c2)c1`, which EC50 [1] is on record?
The EC50 was 0.069 µM.

What about the EC50 [2] of the same compound?
Its EC50 is 24.4 µM.

What about the Ratio EC50 [3] of the same compound?
Its Ratio EC50 is 354.

What does the source list for `CO[C@H]1C[C@H](Oc2cc(F)c(F)c(-c3cc(F)c(OCCCCCCC(=O)O)c(F)c3)c2)C1`?
EC50 [1]: > 100 µM; EC50 [2]: 3.5 µM

With `CO[C@H]1C[C@H](Oc2cc(F)c(F)c(-c3ccc4c(c3)CC[C@H](CCC(=O)O)O4)c2)C1` as the compound, how does the EC50 [1] read?
Its EC50 is 0.463 µM.

And the EC50 [2]?
Its EC50 is > 100 µM.

What about the Activity [5] of the same compound?
Its Activity is “Active”.

Which results are given for `CO[C@H]1C[C@H](Oc2cc(F)c(F)c(-c3cc(F)c(OCCCC(=O)O)c(F)c3)c2)C1`?
EC50 [1]: 0.093 µM; EC50 [2]: > 100 µM; Activity [6]: Dose-dependent effect

How did the Activity [4] turn out when `COc1cc(-c2cc(O[C@H]3C[C@H](OC)C3)cc(F)c2F)cc(OC)c1OCCCC(=O)O` was run?
The Activity was “inactive”.

What does the source list for `CC(C)Nc1ccccc1-c1cc(F)c(OCCCC(=O)O)c(F)c1`?
EC50 [7]: 0.2 to 2 µM; EC50 [1]: 1.47 µM; EC50 [2]: > 100 µM

With `CO[C@H]1C[C@H](Oc2cc(F)c(F)c(-c3cc(F)c(OCC(=O)O)c(F)c3)c2)C1` as the compound, how does the Activity [4] read?
Its Activity is “inactive”.

`Cc1c(COc2cc(F)c(F)c(-c3cc(F)c(OCCCC(=O)O)c(F)c3)c2)cccc1-c1ccccc1` was tested. Which Activity [4] did it give?
The Activity was “inactive”.

Which EC50 [1] does the source give for `CO[C@H]1C[C@H](Oc2cc(F)c(F)c(-c3cc(F)c(OCCCCCC(=O)O)c(F)c3)c2)C1` here?
The EC50 was 0.638 µM.

And the EC50 [2]?
Its EC50 is 11 µM.

And the Ratio EC50 [3]?
The Ratio EC50 was 17.

For `CO[C@H]1C[C@H](Oc2cc(F)c(F)c(-c3cc(C)c(OCCCC(=O)O)c(C)c3)c2)C1`, which EC50 [1] is on record?
The EC50 was 0.874 µM.

What about the EC50 [2] of the same compound?
Its EC50 is > 100 µM.
